According to US9096585B2 (Icahn School of Medicine at Mount Sinai, priority 2010, dated 2015):
Entries after “also recorded” stand apart in the source; their conditions may differ. Like-named read-outs stand apart in the source and are kept apart here.

Tests used:
A549 cells [1] = conditions: human, 24 h
A549 cells [2] = experiment: Cell viability (cytotoxicity) in A549 cells; conditions: A549
influenza A/WSN/33 virus = experiment: Plaque-reduction assays with influenza A/WSN/33 virus in cell lines of different species, with or without pyrimidine supplements
HIV-1 (NL4-3) = experiment: microbe, parasite or virus in culture; assay type: cell-based
Sendai Virus 52 = experiment: Sendai virus replication in A549 cells; assay type: cell-based; conditions: A3 10 μM, 24 h
in vitro [3] = conditions: mouse
[4] = system: human adenovirus 5 (hAd5); assay type: cell-based; conditions: 10 μM A3 or less
influenza virus [5] = experiment: Viral entry assay, influenza virus; assay type: cell-based; conditions: viral entry assays
cellular 5S rRNA = conditions: concentration of 2 μM
Sindbis virus = Sindbis virus replication in A549 cells; assay type: cell-based; conditions: 10 μM A3 or less
[6] = Cell viability (cytotoxicity) in A549 cells; conditions: human, A549 cells
[7] = target: Human dihydroorotate dehydrogenase (DHODH) (Homo sapiens, UniProt Q02127); experiment: In vitro colorimetric DHODH assay (DCIP reduction); conditions: final concentration of 10 μM; 60 mins
Human dihydroorotate dehydrogenase (DHODH), sequence (Q02127 whole entry): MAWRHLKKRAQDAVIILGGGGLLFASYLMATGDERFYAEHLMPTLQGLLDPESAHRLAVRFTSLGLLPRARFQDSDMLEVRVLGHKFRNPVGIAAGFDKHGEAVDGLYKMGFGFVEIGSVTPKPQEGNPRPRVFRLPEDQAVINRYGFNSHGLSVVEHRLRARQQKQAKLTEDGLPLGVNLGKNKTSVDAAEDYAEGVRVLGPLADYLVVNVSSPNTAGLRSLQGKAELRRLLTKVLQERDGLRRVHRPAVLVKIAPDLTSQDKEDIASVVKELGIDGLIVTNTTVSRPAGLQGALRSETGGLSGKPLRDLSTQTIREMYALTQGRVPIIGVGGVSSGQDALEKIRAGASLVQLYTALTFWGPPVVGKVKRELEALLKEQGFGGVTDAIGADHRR

[8] = system: Vesicular Stomatitis virus; assay type: cell-based; conditions: A549
Vaccinia Virus (NYVAC) = assay type: cell-based; conditions: 10 μM A3 or less
Hepatitis C virus = assay type: cell-based; conditions: 10 μM A3 or less
[9] = system: influenza virus polymerase (PB1, PB2, PA, NP); assay type: cell-based, influenza A/WSN/33 virus; conditions: for inhibition of viral RNA polymerase activity: mini-genome reporter construct
influenza virus [10] = assay type: cell-based; conditions: primary screen
[11] = system: influenza A/PR/8/34 virus v-, c-, and mRNA (NA segment); conditions: concentration of 2 μM
[12] = system: influenza viral proteins (NP, M1, and M2); assay type: cell-based, influenza A/WSN/33 virus; conditions: A549; A/WSN/33; in the presence of A3
in vitro [13] = conditions: human
[14] = system: cellular gene expression (Renilla luciferase)
in vitro [15] = conditions: human; remark: listed apart in the source
Newcastle Disease virus = assay type: cell-based; conditions: concentration of 11.2 μM; NDV/B1; A549
VSV = assay type: cell-based, Vesicular Stomatitis virus; conditions: viral entry assays
retrovirus MLV = experiment: Viral entry assay, retrovirus MLV; assay type: cell-based; conditions: viral entry assays
[16] = read-out: CC50 (A549), 24 hour period, Table 3

SMILES: CCN(CC)S(=O)(=O)c1ccc(-c2nnc(SCC(=O)N3CCCC3)o2)cc1 [Compound A3-1, N,N-diethyl-4-(5-(2-oxo-2-(pyrrolidin-1-yl)ethylthio)-1,3,4-oxadiazol-2-yl)benzenesulfonamide]
- CC10 (A549) (A549 cells [1]): 17.3 µM

SMILES: CCN(CC)C(=O)CSc1nnc(-c2ccc3[nH]c(C)c(C)c3c2)o1 [Compound A3-2, 2-(5-(2,3-dimethyl-1H-indol-5-yl)-1,3,4-oxadiazol-2-ylthio)-N,N-diethylacetamide]
- CC10 (A549) (A549 cells [1]): 29 µM

SMILES: Cc1[nH]c2ccc(-c3nnc(SCC(=O)N4CCc5ccccc54)o3)cc2c1C [Compound A3-3, 2-(5-(2,3-dimethyl-1H-indol-5-yl)-1,3,4-oxadiazol-2-ylthio)-1-(indolin-1-yl)ethanone]
- CC10 (A549) (A549 cells [1]): 8.5 µM
- CC50 (A549 cells [2]; [16]): 65 µM

SMILES: Cc1[nH]c2ccc(-c3nnc(SCC(=O)N(C(C)C)C(C)C)o3)cc2c1C [Compound A3-4, 2-(5-(2,3-dimethyl-1H-indol-5-yl)-1,3,4-oxadiazol-2-ylthio)-N,N-diisopropylacetamide]
- CC10 (A549) (A549 cells [1]): 10.7 µM

SMILES: Cc1[nH]c2ccc(-c3nnc(SCC(=O)N4CCOCC4)o3)cc2c1C [Compound A3-5, 2-(5-(2,3-dimethyl-1H-indol-5-yl)-1,3,4-oxadiazol-2-ylthio)-1-morpholinoethanone]
- CC10 (A549) (A549 cells [1]): 10.2 µM

SMILES: Cc1[nH]c2ccc(-c3nnc(SCC(=O)N4CCCCCC4)o3)cc2c1C [Compound A3-6, 1-(azepan-1-yl)-2-(5-(2,3-dimethyl-1H-indol-5-yl)-1,3,4-oxadiazol-2-ylthio)ethanone]
- CC10 (A549) (A549 cells [1]): 18.2 µM

SMILES: O=C(CSc1nnc(-c2cc3ccccc3[nH]2)o1)N1CCCC1 [Compound A3-7, 2-(5-(1H-indol-2-yl)-1,3,4-oxadiazol-2-ylthio)-1-(pyrrolidin-1-yl)ethanone]
- CC10 (A549) (A549 cells [1]): 15.2 µM

SMILES: COc1ccc(-c2nnc(SCC(=O)N3CCCC3)o2)cc1 [Compound A3-8, 2-(5-(4-methoxyphenyl)-1,3,4-oxadiazol-2-ylthio)-1-(pyrrolidin-1-yl)ethanone]
- CC10 (A549) (A549 cells [1]): 11.8 µM

SMILES: O=C(CSc1nnc(-c2cc3ccccc3o2)o1)N1CCCC1 [Compound A3-9, 2-(5-(benzofuran-2-yl)-1,3,4-oxadiazol-2-ylthio)-1-(pyrrolidin-1-yl)ethanone]
- CC10 (A549) (A549 cells [1]): 10.9 µM

SMILES: O=C(CSc1nnc(-c2cccnc2)o1)N1CCCC1 [Compound A3-11, 2-(5-(pyridin-3-yl)-1,3,4-oxadiazol-2-ylthio)-1-(pyrrolidin-1-yl)ethanone]
- CC10 (A549) (A549 cells [1]): 32.6 µM

SMILES: O=C(CSc1nnc(-c2ccncc2)o1)N1CCCC1 [Compound A3-12, 2-(5-(pyridin-4-yl)-1,3,4-oxadiazol-2-ylthio)-1-(pyrrolidin-1-yl)ethanone]
- CC10 (A549) (A549 cells [1]): 11.5 µM

SMILES: Cc1[nH]c2ccc(-c3nnc(SCC(=O)N4CCCC4)o3)cc2c1C [Compound A3]
- inhibition of viral replication (influenza A/WSN/33 virus): strong inhibition; also recorded: complete inhibition
- inhibition of viral replication (influenza A/WSN/33 virus; baby hamster kidney (BHK) cells and pig kidney (PK-15) cells, A3 10 μM): partially inhibited
- effect of orotic acid on the inhibition by A3 (influenza A/WSN/33 virus; both A549 and MDCK cells): reverse the inhibition
- effect on viral replication (influenza A/WSN/33 virus; chicken fibroblast (DF-1) cells, A3 10 μM): no effect
- sensitivity of HIV-1 (HIV-1 (NL4-3); 10 μM A3 or less): sensitive
- IC50 (HIV-1 (NL4-3); Human immunodeficiency virus 1, NL43, TZM-bl, 48 h, read-out: IC50 against HIV-1 (NL4-3)): 0.205 µM
- time of addition at which compound remains active (HIV-1 (NL4-3); time-of-addition, TZM-bl, HIV-1 MOI=0.1, A3 at 1 μM): ≤ 12 h after infection
- inhibition of Sendai virus (SV52) (Sendai Virus 52): 3 logs
- CC50 (in vitro [3]): > 100 µM
- sensitivity of adenovirus [4]: sensitive
- viral entry of influenza virus (influenza virus [5]): did not inhibit viral entry
- levels of cellular 5S rRNA (cellular 5S rRNA): without decreasing levels
- inhibition of Sindbis virus (Sindbis virus): 2 logs
- CC10 (A549) (A549 cells [1]): 38 µM
- CC50 at 24 h [6]: 268 µM
- DHODH activity in vitro [7]: Inhibits DHODH Activity
- titer of vesicular stomatitis virus decreased ([8]; 10 μM A3 or less): 5 logs
- sensitivity of vaccinia virus (Vaccinia Virus (NYVAC)): sensitive
- inhibition of hepatitis C virus (Hepatitis C virus): 2 logs
- inhibition of influenza virus polymerase function ([9]; compared with the DMSO control, A3 at its CC10): 98%
- inhibition of viral RNA polymerase activity ([9]; at 10 μM): up to 99%
- potency relative to ribavirin ([9]; same degree of inhibition by 2 μM A3 as with 100 μM ribavirin): 50 times
- luminescence signal of influenza virus inducible firefly luciferase reporter (influenza virus [10]): no luminescence detectable
- production of all three viral RNA species (v-, c-, and mRNA) [11]: fully inhibit
- levels of viral proteins [12]: reduced levels of viral proteins
- CC50 (in vitro [13]): > 100 µM
- cellular gene expression as monitored by Renilla luciferase activity ([14]; A3 at its CC10): without affecting cellular gene expression
- overall host cell replication machinery (renilla luciferase control plasmid expression) ([14]; all A3 concentrations (0.4-30 μM)): not affected

SMILES: CN(Cc1ccccc1)c1nc(-c2ccc([N+](=O)[O-])cc2)cs1 [Compound A35-1]
- CC10 (A549) (A549 cells [1]): 10.8 µM

SMILES: CN(c1nc(-c2ccccc2)cs1)C1CCS(=O)(=O)C1 (stereo not shown) [Compound A35-2]
- CC10 (A549) (A549 cells [1]): 12.2 µM

SMILES: Nc1nc(-c2ccc(Cl)cc2)cs1 [Compound A35-3]
- CC10 (A549) (A549 cells [1]): 11.4 µM

SMILES: CN(c1ccc(O)cc1)c1nc(-c2ccc(Cl)cc2)cs1 [Compound A35-4]
- CC10 (A549) (A549 cells [1]): 6 µM
- CC50 (A549 cells [2]; [16]): 30 µM

SMILES: CN(C)c1nc(-c2ccc(Br)cc2)cs1 [Compound A35-5]
- CC10 (A549) (A549 cells [1]): 17.8 µM
- CC50 at 24 h (in vitro [15]): 242 µM

SMILES: CN(c1nc(-c2ccc(Br)cc2)cs1)C1CCS(=O)(=O)C1 (stereo not shown) [Compound A35]
- viral entry of influenza virus (influenza virus [5]): did not affect the entry step
- CC10 (A549) (A549 cells [1]): 11.2 µM
- inhibition of VSV ([8]; concentration of 11.2 μM): less significant inhibition
- CC50 at 24 h (in vitro [15]): 110 µM
- inhibition of NDV (Newcastle Disease virus): less significant inhibition

SMILES: COc1cc2c(O)c3c(c(-c4ccc5c(c4)OCO5)c2cc1OC)C(=O)OC3 [Compound C2]
- viral entry of influenza virus (influenza virus [5]): inhibited
- CC50 (A549 cells [2]): 131 µM
- entry of VSV (VSV): inhibited
- entry of the retrovirus MLV (retrovirus MLV): unaffected

SMILES: Cc1oncc1C(=O)Nc1ccc(C(F)(F)F)cc1 [Leflunomide, reference compound]
- effect on influenza virus replication (influenza A/WSN/33 virus; A549 and MDCK cells, concentration of 10 μM): No inhibition

SMILES: NC(=O)c1ncn([C@@H]2O[C@H](CO)[C@@H](O)[C@H]2O)n1 [ribavirin, reference compound]
- inhibition of viral RNA polymerase activity ([9]; at 100 μM): 90%
